# From patent publication US4562176A, “Method and composition for treating cancer” (priority 1985, dated 1985)
# Tests used:
# [1] = system: human lymphoblastic leukemia cells (CCRF-CEM); assay: In vitro growth inhibition of CCRF-CEM cells; assay type: cell-based
# Description: ^b Human lymphoblastic luekemia cells in logphase growth and in a
# suspension culture. Compounds were dissolved in Me2 SO medium, final
# growth medium contained 5% Me2 SO.
# In vitro growth inhibition of the analogues were assayed against human lymphoblastic leukemia cells (CCRF-CEM) in log phase. The most cyctoxic are AMD-OZN analogues 2b and 2g and AMD-OZL analogues 4a-4c. However, compared to AMD, they are several fold less cytotoxic to CEM-cells in vitro.
# [2] = system: mouse leukemia cells; details: known before this invention; cited from earlier work
# [3] = system: P388 lymphocytic leukemia; assay: In vivo P388 assay; parameters: species or system mice; details: ip days 1,5,9
# Description: ^c 10^6 P388 cells implanted intraperitoneally on day 0 into a
# group of 7 CDF1 male mice. Drugs were administered, also ip, in 10%
# Me2 SO--saline on days 1,5,9. Test solutions were kept at 0-4.degree
# C., protected from light.
# These analogues were tested for antitumor activity against P388 lymphocytic leukemia in male CDF1 hybrid mice (Table 6). The tumor was implanted intraperitoneally (ip) with 10^6 cells. The drugs were administered once daily on days 1, 5, 9 beginning 1 day after implantation.
compound,measurement,setting,value
Cc1ccc(C(=O)N[C@@H]2C(=O)N[C@H](C(C)C)C(=O)N3CCC[C@H]3C(=O)N(C)CC(=O)N(C)[C@@H](C(C)C)C(=O)O[C@@H]2C)c2c1Oc1c(c(C(=O)N[C@@H]3C(=O)N[C@H](C(C)C)C(=O)N4CCC[C@H]4C(=O)N(C)CC(=O)N(C)[C@@H](C(C)C)C(=O)O[C@@H]3C)c3nc(-c4ccccc4)c(=O)oc3c1C)N2 [Compound 2b],cytotoxicity to CEM cells (in words),[1]; CCRF-CEM in log phase,most cyctoxic
same,In Vitro (CCRF-CEM) ID50,"[1]; cells in log-phase growth, suspension culture, final growth medium 5% Me2SO",0.44 µg/mL
same,activity against human cancer cells (in words),[1]; human cancer cells,highest human antitumor effects
same,activity against mouse leukemia cells,[2],active
same,antitumor activity against P388 (in words),[3]; CDF1 mice,most active
same,% ILS (percent increase in life span),"[3]; at optimum dose, CDF1 male mice",309%
same,MST (median survival time),"[3]; at optimum dose, CDF1 male mice, control MST 11.0 days",45 days
same,Cure (over 60 day survivors),"[3]; at optimum dose, group of 7 CDF1 male mice, average of 2 experiments",2/7
